Our source for the EC50 values is PMC8425881, “De Novo Design of Peptidic Positive Allosteric Modulators Targeting TRPV1 with Analgesic Effects” (Advanced Science, 2021).

In the assay the target is T1, Murine TRPV1 (Mus musculus, UniProt Q704Y3).
T1 construct: full-length channel, eYFP fused to C terminus (pEYFP-N3), expressed in HEK293T; cDNA gift of Michael X. Zhu; homotetramer
In words: whole-cell patch clamp, Hill fit. It is filed as cell-based. In general terms: Patch clamp records ionic current or voltage across a cell membrane.

T1 sequence (Q704Y3 whole entry, the tested form may be a part): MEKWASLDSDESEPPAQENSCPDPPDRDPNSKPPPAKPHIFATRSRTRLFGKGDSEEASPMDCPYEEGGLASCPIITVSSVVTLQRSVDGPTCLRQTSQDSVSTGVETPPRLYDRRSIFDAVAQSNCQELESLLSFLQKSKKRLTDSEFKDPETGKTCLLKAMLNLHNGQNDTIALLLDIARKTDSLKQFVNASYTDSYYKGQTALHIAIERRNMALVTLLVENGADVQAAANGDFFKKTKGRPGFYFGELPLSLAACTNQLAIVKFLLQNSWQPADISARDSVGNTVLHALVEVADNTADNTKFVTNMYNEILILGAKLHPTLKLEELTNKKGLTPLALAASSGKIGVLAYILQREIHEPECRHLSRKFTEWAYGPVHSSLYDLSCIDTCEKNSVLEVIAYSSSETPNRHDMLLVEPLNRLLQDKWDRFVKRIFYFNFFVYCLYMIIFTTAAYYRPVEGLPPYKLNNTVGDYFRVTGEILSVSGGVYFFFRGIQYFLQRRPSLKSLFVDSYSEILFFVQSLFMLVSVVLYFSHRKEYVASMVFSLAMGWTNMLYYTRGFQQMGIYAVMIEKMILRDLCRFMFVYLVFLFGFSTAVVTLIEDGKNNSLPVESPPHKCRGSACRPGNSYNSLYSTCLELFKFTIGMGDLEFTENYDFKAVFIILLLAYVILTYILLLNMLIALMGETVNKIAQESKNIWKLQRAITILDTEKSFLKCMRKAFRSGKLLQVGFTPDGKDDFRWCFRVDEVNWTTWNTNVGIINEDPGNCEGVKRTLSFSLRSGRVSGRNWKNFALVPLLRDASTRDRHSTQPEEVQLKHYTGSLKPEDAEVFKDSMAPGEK

In general, EC50 refers to the concentration needed to bring the measured effect to its halfway point. The low end stands for a more potent agent, the high end for a less potent agent. `COc1cc(CNC(=O)CCCC/C=C/C(C)C)ccc1O` [capsaicin] came in with an EC50 of 186 nM.
